One assay relates to HPK1 p-SLP-76. The experiment in a line: HPK1 p-SLP-76 inhibition assay in human PBMC (HTRF). Type of assay: cell-based. To be noted: 6 h compound, anti-CD3 stimulation 20 min. As for the experimental part: Human PBMC were purchased from OriCells (FPB004F-C). Before compound treatment, PBMC were starved in PRMI-1640 medium supplemented with 0.5% FBS overnight. The cell density was adjusted to 1*10^7 cells/mL in assay medium (RPMI-1640 no phenol red with 0.5% FBS) and 16 μL cell suspension was transferred per well to a 384-well plate (Corning #3765). 6× solution of test compound was prepared in assay medium and 4 μL was added per well to the 384-well plate. The plate was then incubated at 37° C., 5% CO2 for 6 h. PBMC in 384-well plate were stimulated with anti-CD3 (BD Biosciences #555329, final conc. is 10 ug/mL) for 20 min at 37° C., 5% CO2 by adding 4 μL 6× antibody solution per well. Phospho-SLP76 HTRF kit was purchased from Cisbio (63ADK076PEH). 8 μL 4× Lysis Buffer was added to 384-well plate after anti-CD3 stimulation. The plate was centrifuged at 1,000 rpm for 1 min, shaken at 250 rpm for 60 min and centrifuged again at 1,000 rpm for 5 min. Afterwards the cell lysates were transferred to the assay plate (Greiner #784075) with 16 μL per well. 4 μL detection antibody mix per well prepared in Detection Buffer was added to the assay plate, followed by centrifugation at 1,000 rpm for 1 min and incubation at 25° C. overnight.

In a further assay the target is T1, HPK1 protein (Homo sapiens, UniProt Q92918).
T1 construct: purchased Signal Chem M23-11G-10
T1 sequence (Q92918 1-346 limits assumed): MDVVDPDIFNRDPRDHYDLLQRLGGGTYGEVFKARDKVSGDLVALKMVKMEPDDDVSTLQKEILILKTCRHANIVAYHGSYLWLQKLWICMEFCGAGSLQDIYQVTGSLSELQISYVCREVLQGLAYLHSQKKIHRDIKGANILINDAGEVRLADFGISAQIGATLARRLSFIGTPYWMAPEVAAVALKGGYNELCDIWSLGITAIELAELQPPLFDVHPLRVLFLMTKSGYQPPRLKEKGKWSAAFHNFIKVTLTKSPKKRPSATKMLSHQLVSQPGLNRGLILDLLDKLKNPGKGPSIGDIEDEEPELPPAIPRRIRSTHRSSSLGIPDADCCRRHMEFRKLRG
The experiment in a line: HPK1 enzyme inhibition assay (ADP-Glo). The assay is classed as biochemical. Particulars: MBP substrate, ATP, ADP-Glo readout. As for the experimental part: The compound was dissolved in 100% DMSO at the concentration of 10 mM. The HPK1 protein was purchased from Signal Chem (M23-11G-10). 2.5 μL per well of 2×HPK1 protein was added to assay plate containing the test compound, centrifuged at 1500 rpm for 1 minute, and then incubated at 25° C. for 60 minutes. MBP protein was purchased from Signal Chem (M42-51N) and ATP was purchased from Promega (V9102). The two were added 2.5 μL per well mixture of 2×MBP (0.2 ug/ul) and ATP (20 μM), centrifuged at 1500 rpm for 1 minute, then incubated at 25° C. for 60 minutes. Then added 5 μL of ADP-Glo from Promega (V9102) to the assay plate and depleted the unconsumed ATP for 60 minutes. Then centrifuged at 1500 rpm for 1 minute and incubated at 25° C. for 60 minutes. Finally, 10 μL of the kinase assay reagent from Promega (V9102) was added to the assay plate to convert ADP to ATP, centrifuged at 1500 rpm for 1 minute, incubate at 25° C. for 40 minutes. After 40 minutes incubation, the […] was determined. Based on the results, the IC50 value of the compound was calculated.

Broadly, the IC50 is the concentration needed to halve the response being measured. A lower IC50 goes with greater potency.

In the case of `O=C1CCC(N2Cc3cc(C4=CCN(CCCN5CCN(c6cccc(-c7cnc8[nH]cc(C9CC9)c8c7Cl)n6)C(=O)C5)CC4)ccc3C2=O)C(=O)N1` (stereo not drawn) [Example 83], the IC50 was ≤ 300 nM in the assay on HPK1 p-SLP-76 and ≤ 10 nM against HPK1 protein.
As for `O=C1CCC(Nc2ccc(N3CCN(CCCS(=O)(=O)N4CCN(c5cccc(-c6cnc7[nH]cc(C8CC8)c7c6Cl)c5)C(=O)C4)CC3)c(F)c2)C(=O)N1` (stereo not drawn) [Example 105, 3-((4-(4-(3-((4-(3-(4-chloro-3-cyclopropyl-1H-pyrrolo[2,3-b]pyridin-5-yl)phenyl)-3-oxopiperazin-1-yl)sulfonyl)propyl)piperazin-1-yl)-3-fluorophenyl)amino)piperidine-2,6-dione], the IC50 is ≤ 300 nM in the assay on HPK1 p-SLP-76 and ≤ 10 nM on HPK1 protein.
Taken in the same sequence, the figures for `O=C1CCC(N2C(=O)c3ccc(C4CCN(CCCN5CCN(c6cccc(-c7cnc8[nH]cc(C9CC9)c8c7Cl)n6)C(=O)C5)CC4)cc3C2=O)C(=O)N1` (stereo not drawn) [Example 84, 5-(1-(3-(4-(6-(4-chloro-3-cyclopropyl-1H-pyrrolo[2,3-b]pyridin-5-yl)pyridin-2-yl)-3-oxopiperazin-1-yl)propyl)piperidin-4-yl)-2-(2,6-dioxopiperidin-3-yl)isoindoline-1,3-dione] were ≤ 300 nM and ≤ 10 nM.
Consider `O=C1CCC(N2Cc3cc(C4CCN(CCCN5CCN(c6cccc(-c7cnc8[nH]cc(C9CC9)c8c7Cl)n6)C(=O)C5)CC4)ccc3C2=O)C(=O)N1` (stereo not drawn) [Example 82, 3-(5-(1-(3-(4-(6-(4-chloro-3-cyclopropyl-1H-pyrrolo[2,3-b]pyridin-5-yl)pyridin-2-yl)-3-oxopiperazin-1-yl)propyl)piperidin-4-yl)-1-oxoisoindolin-2-yl)piperidine-2,6-dione], for which the IC50 in the assay with HPK1 p-SLP-76 is ≤ 300 nM; on HPK1 protein, ≤ 10 nM.
Turning to `O=C1CCC(N2C(=O)c3ccc(N4CCN(CCCS(=O)(=O)N5CCN(c6cccc(-c7cnc8[nH]cc(CC(F)F)c8c7Cl)c6)C(=O)C5)CC4)cc3C2=O)C(=O)N1` (stereo not drawn) [Example 106], the IC50 was 300 to 3000 nM with HPK1 p-SLP-76 and ≤ 10 nM against HPK1 protein.
The like results for `O=C1CCC(Nc2ccc(C3CCN(CCCS(=O)(=O)N4CCN(c5cccc(-c6cnc7[nH]cc(C8CC8)c7c6Cl)c5)C(=O)C4)CC3)cc2)C(=O)N1` (stereo not drawn) [Example 104] were, in that order, ≤ 300 nM and ≤ 10 nM.
Taken in the same sequence, the figures for `CCc1c[nH]c2ncc(-c3cccc(N4CCN(C(=O)CCCCCCCOc5cccc6c5CN(C5CCC(=O)NC5=O)C6=O)CC4=O)c3)c(Cl)c12` (stereo not drawn) [Example 1] were 3000 to 10000 nM and 10 to 100 nM.
For the compound `O=C1CCN(c2cnc3cc(C4=CCN(CCCN5CCN(c6cccc(-c7cnc8[nH]cc(C9CC9)c8c7Cl)c6)C(=O)C5)CC4)ccn23)C(=O)N1` [Example 93, 1-(7-(1-(3-(4-(3-(4-chloro-3-cyclopropyl-1H-pyrrolo[2,3-b]pyridin-5-yl)phenyl)-3-oxopiperazin-1-yl)propyl)-1,2,3,6-tetrahydropyridin-4-yl)imidazo[1,2-a]pyridin-3-yl)dihydropyrimidine-2,4 (1H,3H)-dione], the IC50 is 300 to 3000 nM with HPK1 p-SLP-76 and ≤ 10 nM against HPK1 protein.
The like results for `O=C1CCC(c2ccc(OC3CCN(CCCN4CCN(c5cccc(-c6cnc7[nH]cc(C8CC8)c7c6Cl)c5)C(=O)C4)CC3)cc2)C(=O)N1` (stereo not drawn) [Example 86] were, in that order, 300 to 3000 nM and ≤ 10 nM.
As for `O=C1CCC(c2ccc(C3CCN(CCCCN4CCN(c5cccc(-c6cnc7[nH]cc(C8CC8)c7c6Cl)c5)C(=O)C4)CC3)cc2)C(=O)N1` (stereo not drawn) [Example 87], the half-inhibitory concentration (IC50) in the assay with HPK1 p-SLP-76 was ≤ 300 nM; against HPK1 protein, ≤ 10 nM.
With `O=C1CCC(N2C(=O)c3ccc(N4CCN(CCCN5CCN(c6cccc(-c7cnc8[nH]cc(C9CC9)c8c7Cl)n6)C(=O)C5)CC4)cc3C2=O)C(=O)N1` (stereo not drawn) [Example 80, 5-(4-(3-(4-(6-(4-chloro-3-cyclopropyl-1H-pyrrolo[2,3-b]pyridin-5-yl)pyridin-2-yl)-3-oxopiperazin-1-yl)propyl)piperazin-1-yl)-2-(2,6-dioxopiperidin-3-yl)isoindoline-1,3-dione], the IC50 in the assay on HPK1 p-SLP-76 is ≤ 300 nM; on HPK1 protein, ≤ 10 nM.
As for `O=C1CCC(N2C(=O)c3ccc(C4CCN(CCCN5CCN(c6cccc(-c7cnc8[nH]cc(C9CC9)c8c7Cl)c6)C(=O)C5)CC4)cc3C2=O)C(=O)N1` (stereo not drawn) [Example 71, 5-(1-(3-(4-(3-(4-chloro-3-cyclopropyl-1H-pyrrolo[2,3-b]pyridin-5-yl)phenyl)-3-oxopiperazin-1-yl)propyl)piperidin-4-yl)-2-(2,6-dioxopiperidin-3-yl) isoindoline-1,3-dione], the concentration for half-maximal inhibition (IC50) with HPK1 p-SLP-76 is ≤ 300 nM; against HPK1 protein, ≤ 10 nM.
The like results for `O=C1CCC(N2C(=O)c3ccc(N4CC(CCOC(=O)N5CCN(c6cccc(-c7cnc8[nH]cc(CC(F)F)c8c7Cl)c6)C(=O)C5)C4)cc3C2=O)C(=O)N1` (stereo not drawn) [Example 91] were, in that order, > 10000 nM and 10 to 100 nM.
As to `O=C1CCC(N2C(=O)c3ccc(C4=CCN(CCCN5CCN(c6cccc(-c7cnc8[nH]cc(C9CC9)c8c7Cl)c6)C(=O)C5)CC4)cc3C2=O)C(=O)N1` (stereo not drawn) [Example 70, 5-(1-(3-(4-(3-(4-chloro-3-cyclopropyl-1H-pyrrolo[2,3-b]pyridin-5-yl)phenyl)-3-oxopiperazin-1-yl)propyl)-1,2,3,6-tetrahydropyridin-4-yl)-2-(2,6-dioxopiperidin-3-yl)isoindoline-1,3-dione], the figures for the half-inhibitory concentration (IC50) in the assay on HPK1 p-SLP-76 and on HPK1 protein were 300 to 3000 nM and 10 to 100 nM, respectively.
As to `Cn1nc(C2CCC(=O)NC2=O)c2ccc(C3CCN(CCCN4CCN(c5cccc(-c6cnc7[nH]cc(C8CC8)c7c6Cl)c5)C(=O)C4)CC3)cc21` (stereo not drawn) [Example 92, 3-(6-(1-(3-(4-(3-(4-chloro-3-cyclopropyl-1H-pyrrolo[2,3-b]pyridin-5-yl)phenyl)-3-oxopiperazin-1-yl)propyl)piperidin-4-yl)-1-methyl-1H-indazol-3-yl)piperidine-2,6-dione], the half-inhibitory concentration (IC50) with HPK1 p-SLP-76 was 300 to 3000 nM; on HPK1 protein it was ≤ 10 nM.
For `O=C1CCC(N2Cc3cc(N4CCN(CCCN5CCN(c6cccc(-c7cnc8[nH]cc(C9CC9)c8c7Cl)n6)C(=O)C5)CC4)ccc3C2=O)C(=O)N1` (stereo not drawn) [Example 81, 3-(5-(4-(3-(4-(6-(4-chloro-3-cyclopropyl-1H-pyrrolo[2,3-b]pyridin-5-yl)pyridin-2-yl)-3-oxopiperazin-1-yl)propyl)piperazin-1-yl)-1-oxoisoindolin-2-yl)piperidine-2,6-dione], the values for the IC50 in the assay on HPK1 p-SLP-76 and on HPK1 protein were ≤ 300 nM and ≤ 10 nM, respectively.
Taken in the same sequence, the figures for `O=C1CCC(N2C(=O)c3ccc(C4=CCN(CCCN5CCN(c6cccc(-c7cnc8[nH]cc(C9CC9)c8c7Cl)n6)C(=O)C5)CC4)cc3C2=O)C(=O)N1` (stereo not drawn) [Example 85, 5-(1-(3-(4-(6-(4-chloro-3-cyclopropyl-1H-pyrrolo[2,3-b]pyridin-5-yl)pyridin-2-yl)-3-oxopiperazin-1-yl)propyl)-1,2,3,6-tetrahydropyridin-4-yl)-2-(2,6-dioxopiperidin-3-yl)isoindoline-1,3-dione] were 300 to 3000 nM and ≤ 10 nM.
Consider `CCc1c[nH]c2ncc(-c3cccc(N4CCN(C(=O)CCOCCOCCOc5cccc6c5CN(C5CCC(=O)NC5=O)C6=O)CC4=O)c3)c(Cl)c12` (stereo not drawn) [Example 12, 3-(4-(2-(2-(3-(4-(3-(4-chloro-3-ethyl-1H-pyrrolo[2,3-b]pyridin-5-yl)phenyl)-3-oxopiperazin-1-yl)-3-oxopropoxy)ethoxy)ethoxy)-1-oxoisoindolin-2-yl)piperidine-2,6-dione], for which the concentration for half-maximal inhibition (IC50) with HPK1 p-SLP-76 lay in the range of 3000 to 10000 nM; at HPK1 protein, 10 to 100 nM.

These data come from patent US20240368159A1, “HPK1 DEGRADERS, COMPOSITIONS COMPRISING THE HPK1 DEGRADER, AND METHODS OF USING THE SAME” (BIOFRONT LTD, priority 2021, published 2024).
